Experimental data reported in BigSolDB 2.1.

COc1cc2c(cc1OC)-c1cc3ccc(OC)c(OC)c3c[n+]1CC2.[Cl-]
solubility (mole fraction)
Conditions	283.15 K	288.15 K	293.15 K	298.15 K	303.15 K	308.15 K	313.15 K	318.15 K	323.15 K	328.15 K
in ethanol	0.00254	0.00299	0.00366	0.0045	0.00543	0.00651	0.00779	0.00914	0.0108	0.0127
in ethylene glycol	0.00173	0.00202	0.00242	0.003	0.00362	0.00441	0.00529	0.00631	0.00745	0.00882
in isopropanol	0.000177	0.000218	0.00028	0.000374	0.000479	0.000603	0.000754	0.000933	0.00115	0.00141
in propylene glycol	6.32e-06	9.38e-06	1.36e-05	2.11e-05	3.12e-05	4.53e-05	6.48e-05	9.27e-05	0.00013	0.00018
in water	0.000565	0.000693	0.000877	0.0011	0.00136	0.00165	0.002	0.0024	0.00287	0.00341
